Measured values reported in patent US20180298053A1, “ANTIBIOTIC OLIGOPEPTIDES” (priority 2017, published 2018).
Where a name gives a salt, the structure may show the parent alone. Square brackets hold non-standard residues; d marks the D form. Peptide text beside a SMILES is read from it. * marks the point of attachment. ξ: configuration not given here. ξF = NC(Cc1ccccc1)C(=O)O; NHOH = ON*

System: E. coli (ATTC 8739)
Assay: Zone of inhibition test
Type: cell-based
Conditions: at 12.5 μg, FIG. 1B
Experimental: Compound A was tested against L-phenylalanine-(S)-2-amino-N-hydroxy-4-(methylthio)butanamide hydrochloride (Example 3) in a side-by-side comparison in a conventional zone of inhibition test. In this test, both compounds were compared at various concentrations against E. coli (ATTC 8739) grown in a Petri dish using the antibiotic kanamycin as a control.

In the case of `CSCC[C@H](NC(=O)C(N)Cc1ccccc1)C(=O)NO` (stereo partly drawn) [Example 3, L-phenylalanine-(S)-2-amino-N-hydroxy-4-(methylthio)butanamide Hydrochloride] (H-[ξF]-Met-{NHOH}), the “strength of zone of inhibition compared with cpd. A at 50 μg” value is reported as “substantially stronger”.
